pIC50: −log10 of the molar value. Counter-ions that a name gives are not always drawn.
How the values were obtained:
[1] = test system: IFN-γ production; assay: CRS toxicity evaluation system using CAR-T cells: IFN-γ; format: cell-based; conditions: Homo sapiens, Monocyte, target cells and monocytes, 72 hours
Procedure: (§1) The supernatants were collected at 72 hours after the initiation of culture, and various cytokines in each supernatant were measured by FACS multiplex assay.

[2] = test system: killer activity of CAR-T cells; assay: Killer activity of CAR-T cells (CAR-T cells, target cells and CD14^+ cells, luciferase); format: cell-based, human; conditions: 2 days
Description: FMC63 scFv, the hinge, transmembrane and cytoplasmic domains of CD28 and the cytoplasmic domain of CD3-ζ were used to construct anti-CD19 CAR on the basis of the method of Kochenderfer, et al.^15). The sequence was obtained from GenBank (HM852952) and an IDT codon optimization tool (http://sg.igtdna.com/CodonOpt) was used to remove BamHI recognition sequences within FMC63. The optimized FMC63-28z sequence was chemically synthesized and amplified by polymerase chain reaction (PCR) with the following primer set.
The PCR product was inserted into the multicloning site (EcoRI and BamHI) of lentivirus plasmid CSII-EF-MCS-2A-eGFP by using an In-Fusion HD cloning kit to obtain CSII-EF-FMC63-28z-2A-eGFP. To prepare a lentivirus vector, CSII-EF-FMC63-28z-2A-eGFP and a packaging plasmid (pMDLg/p.RRE, pRSV-rev and pMD.G) were co-transfected into Lenti-X293T cells. The prepared lentivirus vector was infected into peripheral blood mononuclear cells stimulated with anti-CD3 antibody, anti-CD28 antibody and IL-2, followed by FACS sorting to obtain a CD3-positive and eGFP-positive fraction as CAR-T cells.
On the basis of the method of Kochenderfer, et al.^15), the open reading frame of human CD19 was synthesized and amplified by PCR with the following primers. […]
Subsequently, luciferase activity was determined by detection of emission intensity with an EnSpire 2300.

[3] = test system: IL-1β production in CD14^+ cells; assay: LPS stimulation-induced IL-1β production in CD14^+ cells; format: cell-based, human; conditions: for pIC50: Homo sapiens, 72 h, LPS 500 ng/mL, 3 days
Procedure: (§2) Cryopreserved PBMCs were quickly thawed in a 37° C. thermostat and added to a tube containing medium. After centrifugation (at room temperature at 300 g for 10 minutes) to remove the supernatant, the cells were suspended again in the medium, followed by counting the number of viable cells. The cell suspension was centrifuged (at room temperature at 300 g for 10 minutes) to remove the supernatant, followed by addition of MACS Buffer to suspend the cells, to which Human CD14 MicroBeads were further added. After being allowed to stand on ice for 15 minutes, the cell suspension was diluted with MACS Buffer and centrifuged (at room temperature at 300 g for 10 minutes) to remove the supernatant. MACS Buffer was added to the tube, and the cells were suspended and then applied to a separatory column to separate CD14^+ cells. The CD14^+ cell fraction was diluted with the medium and then centrifuged (at room temperature at 300 g for 10 minutes). The supernatant was removed and the cells were suspended in the medium (1 mL), followed by counting the number of viable cells. The cell suspension was adjusted with the medium to 2.4×10^5 or 3×10^5 cells/mL and seeded in a 96-well plate (2.4×10^4 cells/well), which was then allowed to stand in a CO2 incubator for 1 to 2 hours.
The culture supernatants collected in 1.2.10 were quantified for IL-1β using Human IL-1β DuoSet ELISA.

[4] = test system: OPN production from CD14^+ cells; assay: LPS stimulation-induced OPN production in CD14^+ cells; format: cell-based, human; conditions: for pIC50: Homo sapiens, 72 h, LPS 500 ng/mL, 3 days
Procedure: as §2
The collected culture supernatants were quantified for OPN using Human OPN DuoSet ELISA.

[5] = test system: IL-1β production; assay: CRS toxicity evaluation system using CAR-T cells: IL-1β; format: cell-based, human; conditions: for pIC50: Homo sapiens, Monocyte, CAR-T cells, target cells and monocytes, 72 hours
Procedure: as §1

[6] = test system: IL-6 production from CD14^+ cells; assay: LPS stimulation-induced IL-6 production in CD14^+ cells; format: cell-based, human; conditions: for pIC50: Homo sapiens, 72 h, CD14^+ cells, LPS 3 ng/mL, 3 days
Procedure: (§3) Cryopreserved PBMCs were quickly thawed in a 37° C. thermostat and added to a tube containing medium. After centrifugation (at room temperature at 300 g for 10 minutes) to remove the supernatant, the cells were suspended again in the medium, followed by counting the number of viable cells. The cell suspension was centrifuged (at room temperature at 300 g for 10 minutes) to remove the supernatant, followed by addition of MACS Buffer to suspend the cells, to which Human CD14 MicroBeads were further added. After being allowed to stand on ice for 15 minutes, the cell suspension was diluted with MACS Buffer and centrifuged (at room temperature at 300 g for 10 minutes) to remove the supernatant.
(§4) MACS Buffer was added to the tube, and the cells were suspended and then applied to a separatory column to separate CD14^+ cells. The CD14^+ cell fraction was diluted with the medium and then centrifuged (at room temperature at 300 g for 10 minutes). The supernatant was removed and the cells were suspended in the medium (1 mL), followed by counting the number of viable cells. The cell suspension was adjusted with the medium to 2.4×10^5 or 3×10^5 cells/mL and seeded in a 96-well plate (2.4×10^4 cells/well), which was then allowed to stand in a CO2 incubator for 1 to 2 hours.
The collected culture supernatants were quantified for IL-6 using Human IL-6 DuoSet ELISA.

[7] = test system: MCP-1 production from CD14^+ cells; assay: LPS stimulation-induced MCP-1 production in CD14^+ cells; format: cell-based; conditions: Homo sapiens, 72 h, LPS 3 ng/mL, 3 days
Procedure: as §3, §4
The collected culture supernatants were quantified for MCP-1 using Human CCL2/MCP-1 DuoSet ELISA.

Row | Compound | pIC50 [1] | effect on the killer activity of CAR-T cells [2] | pIC50 [3] | suppressive effect on IL-1β production ([3]; LPS) | pIC50 [4] | suppressive effect on OPN production ([4]; LPS) | suppressive effect on IL-1β ([5]; CRS toxicity evaluation system using CAR-T cells) | pIC50 [5] | pIC50 [6] | pIC50 [7] | Ratio (IL-6/IFN-γ) of IC50 values ([6]; CD14^+ cells (IL-6) / CD8^+ T cells (IFN-γ))
1 | C[C@]12C=CC(=O)C=C1CC[C@@H]1[C@@H]2[C@@H](O)C[C@@]2(C)[C@H]1CC[C@]2(O)C(=O)CO [PSL, Prednisolone] | 6.06 | suppressive effect on the killer activity of CAR-T cells in a concentration-dependent manner | < 4.52 | no suppressive effect | < 4.52 | no suppressive effect | no suppressive effect | < 4.00 | 6.82 | 5.18 | –
2 | CCOC(=O)[C@H](Cc1ccccc1)NC(=O)c1cc(Cl)c(OCCN2CCN(C)CC2)c(Cl)c1O [JTE-607, (−)-ethyl N-{3,5-dichloro-2-hydroxy-4-[2-(4-methylpiperazin-1-yl)ethoxy]benzoyl}-L-phenylalaninate dihydrochloride] | 6.22 | did not affect | 8.46 | – | 6.88 | – | – | 6.45 | 7.28 | 7.67 | <0.18

From patent US11744830B2, “Ameliorative agent for cytokine release syndrome and so on” (TORII PHARMACEUTICAL CO., LTD., priority 2018, dated 2023)
